Results reported in the NIST ThermoML archive (doi:10.1021/je900262t).

Columns and labels:
[1] = Liquid; for mass density: 303.15 K, 101.33 kPa, Pycnometric method; for vapor or sublimation pressure: Ebulliometric method (Recirculating still)
[2] = excess molar enthalpy (molar enthalpy of mixing); xn = mol fraction of the nth substance listed; settings: 298.15 K, 101 kPa, Liquid

CN1CCCC1=O [N-methylpyrrolidone]
Settings	mass density [kg/m3]
[1]	1023.4

Settings	vapor or sublimation pressure [kPa]
[1], 473.25 K	95.3

CCC(C)=O [butanone] + CN1CCCC1=O
[2]
Settings	excess molar enthalpy [kcal/mol]
x1 = 0.0565	-0.00626
x1 = 0.1162	-0.0109
x1 = 0.1812	-0.0161
x1 = 0.2461	-0.0239
x1 = 0.3104	-0.0306
x1 = 0.369	-0.0355
x1 = 0.4334	-0.0382
x1 = 0.4841	-0.04
x1 = 0.5458	-0.0377
x1 = 0.6781	-0.0277
x1 = 0.7324	-0.0206
x1 = 0.7935	-0.0148
x1 = 0.8525	-0.0117
x1 = 0.9112	-0.00593
x1 = 0.9609	-0.0048

O=C1CCCCC1 [cyclohexanone]
Settings	vapor or sublimation pressure [kPa]
[1], 426.25 K	95.3

CCC(C)=O [butanone]
Settings	mass density [kg/m3]
[1]	799.71

Settings	vapor or sublimation pressure [kPa]
[1], 350.85 K	95.3

CC(=O)CC(C)C [4-methylpentan-2-one] + CN1CCCC1=O
[2]
Settings	excess molar enthalpy [kcal/mol]
x1 = 0.0508	0.00545
x1 = 0.1052	0.0119
x1 = 0.1632	0.0183
x1 = 0.2234	0.0242
x1 = 0.2858	0.0304
x1 = 0.3815	0.04
x1 = 0.4258	0.0429
x1 = 0.4787	0.0432
x1 = 0.5346	0.0415
x1 = 0.599	0.0401
x1 = 0.6712	0.0362
x1 = 0.7536	0.0253
x1 = 0.8369	0.0156
x1 = 0.9192	0.00581

CC(=O)CC(C)C [4-methylpentan-2-one]
Settings	mass density [kg/m3]
[1]	796.33

Settings	vapor or sublimation pressure [kPa]
[1], 386.65 K	95.3

O=C1CCCCC1 [cyclohexanone] + CN1CCCC1=O
[2]
Settings	excess molar enthalpy [kcal/mol]
x1 = 0.0609	0.0043
x1 = 0.1242	0.013
x1 = 0.1855	0.0201
x1 = 0.2495	0.0261
x1 = 0.3151	0.0331
x1 = 0.3761	0.0391
x1 = 0.4301	0.0425
x1 = 0.4527	0.0461
x1 = 0.5028	0.0484
x1 = 0.5608	0.0481
x1 = 0.6249	0.0477
x1 = 0.6866	0.04
x1 = 0.7491	0.0317
x1 = 0.8134	0.0237
x1 = 0.8794	0.0158
x1 = 0.9445	0.00798
